Measurements as given in ChEMBL document CHEMBL1145199, “Design, synthesis, and SAR of a novel pyrazinone series with non-nucleoside HIV-1 reverse transcriptase inhibitory activity” (J Med Chem, 2005).
pIC50: −log10 of the molar value. One block for each molecule: values may come before it.

Experiments:
Format in all cases: functional, organism-based
[1] = system: Human immunodeficiency virus 1; assay: Inhibitory concentration against 100I mutant was determined; conditions: for pIC50: Human immunodeficiency virus 1, read-out: IC50
[2] = system: Human immunodeficiency virus 1; assay: Inhibitory concentration against wild-type HIV-1 LAI Virus was determined; conditions: for pIC50: Human immunodeficiency virus 1, read-out: IC50
[3] = system: Human immunodeficiency virus 1; assay: Inhibitory concentration against 188L mutant was determined; conditions: for pIC50: Human immunodeficiency virus 1, read-out: IC50
[4] = system: Human immunodeficiency virus 1; assay: Inhibitory concentration against 181C mutant was determined; conditions: for pIC50: Human immunodeficiency virus 1, read-out: IC50
[5] = system: Human immunodeficiency virus 1; assay: Inhibitory concentration against 103N mutant was determined; conditions: for pIC50: Human immunodeficiency virus 1, read-out: IC50
[6] = system: Human immunodeficiency virus 1; assay: Inhibitory concentration against 188L mutant strain was determined
[7] = system: Human immunodeficiency virus 1; assay: Inhibitory concentration against 103N and 181C mutant was determined
[8] = system: Human immunodeficiency virus 1; assay: Inhibitory concentration against 100I and 103N mutant was determined
[9] = system: Human immunodeficiency virus 1; assay: Inhibitory concentration against 100I and 103N mutant strains was determined
[10] = system: Human immunodeficiency virus 1; assay: Inhibitory concentration against 103N and 181C mutant strains was determined

SMILES: Cc1cc(C)c(Sc2cn(C)c(=O)c(Nc3ccc(C#N)cc3)n2)c(C)c1
pIC50 [1]: < 5.00
pIC50 [2]: 7.80
pIC50 [3]: 6.20
pIC50 [4]: 6.00
pIC50 [5]: 6.20

SMILES: Cc1cc(C)c(S(=O)(=O)c2nc(Nc3ccc(C#N)cc3)c(=O)n(C)c2C)c(C)c1
pIC50 [6]: 6.80
pIC50 [1]: 7.60
pIC50 [2]: 8.52
pIC50 [4]: 7.20
pIC50 [5]: 6.49

SMILES: Cc1ccccc1Oc1nc(Nc2ccc(C#N)cc2)c(=O)n(C)c1C
pIC50 [1]: 6.40
pIC50 [2]: 8.30
pIC50 [3]: 5.60
pIC50 [4]: 5.60
pIC50 [5]: 6.40

SMILES: Cc1cc(C)c(Sc2cn(C)c(=O)c(Nc3ccc(Cl)cc3)n2)c(C)c1
pIC50 [1]: < 5.00
pIC50 [2]: 7.10
pIC50 [3]: 5.00
pIC50 [4]: 5.20
pIC50 [5]: < 5.00

SMILES: Cc1ccc(Sc2cn(C)c(=O)c(Nc3ccc(C#N)cc3)n2)c(C)c1
pIC50 [1]: < 5.00
pIC50 [2]: 8.30
pIC50 [3]: < 5.00
pIC50 [4]: < 5.00
pIC50 [5]: < 5.00

SMILES: Cc1cc(C)c(Oc2nc(Nc3ccc(C#N)cc3)c(=O)n(C)c2C)c(C)c1
pIC50 [1]: < 7.30
pIC50 [2]: 8.30
pIC50 [3]: < 6.70
pIC50 [4]: < 6.30
pIC50 [5]: < 6.80

SMILES: Cc1ccc(Oc2cn(C)c(=O)c(Nc3ccc(F)cc3)n2)c(C)c1
IC50 [1]: > 10 µmol
IC50 [2]: 1.258 µmol
IC50 [3]: > 10 µmol
IC50 [4]: > 10 µmol
IC50 [5]: > 10 µmol

SMILES: Cc1ccc(Oc2nc(Nc3ccc(C#N)cc3)c(=O)n(C)c2C)c(C)c1
pIC50 [7]: 6.00
pIC50 [1]: 7.60
pIC50 [8]: 6.80
pIC50 [2]: 8.52
pIC50 [3]: 6.80
pIC50 [4]: 7.20
pIC50 [5]: 7.49

pIC50 [2]: 6.30
SMILES: Cc1ccc(Oc2cn(C)c(=O)c(Nc3ccc(C(F)(F)F)cc3)n2)c(C)c1

pIC50 [2]: 6.50
SMILES: Cc1ccccc1Oc1cn(Cc2ccccc2)c(=O)c(Nc2ccc(C#N)cc2)n1

IC50 [2]: > 100 µmol
SMILES: Cc1ccc(Nc2nc(Oc3ccc(C)cc3C)cn(C)c2=O)cc1

SMILES: Cc1ccccc1Oc1cn(C)c(=O)c(Nc2ccc(C#N)cc2)n1
pIC50 [1]: 5.90
pIC50 [2]: 8.40
pIC50 [3]: 5.70
pIC50 [4]: 5.60
pIC50 [5]: 6.10

pIC50 [2]: 6.30
SMILES: Cc1ccc(Sc2nc(Nc3ccc(Cl)cc3)c(=O)n(C)c2C)c(C)c1

SMILES: Cc1ccc(Oc2nc(Nc3ccc(Cl)cc3)c(=O)n(C)c2C)c(C)c1
pIC50 [1]: 5.40
pIC50 [2]: 6.90
pIC50 [3]: < 5.00
pIC50 [4]: < 5.00
pIC50 [5]: 5.40

SMILES: Cc1cc(C#N)cc(C)c1Oc1nc(Nc2ccc(C#N)cc2)c(=O)n(C)c1C
pIC50 [7]: 7.20
pIC50 [8]: 6.80
pIC50 [2]: 8.22
pIC50 [4]: 7.60

SMILES: Cc1ccccc1Sc1nc(Nc2ccc(C#N)cc2)c(=O)n(C)c1C
pIC50 [1]: < 5.00
pIC50 [2]: 7.40
pIC50 [3]: < 5.00
pIC50 [4]: < 5.00
pIC50 [5]: < 5.00

SMILES: Cc1ccc(Oc2cn(C)c(=O)c(Nc3ccc(C#N)cc3)n2)c(C)c1
pIC50 [1]: 6.50
pIC50 [2]: > 9.00
pIC50 [3]: 6.40
pIC50 [4]: 6.80
pIC50 [5]: 7.49

SMILES: Cc1ccccc1Sc1cn(C)c(=O)c(Nc2ccc(C#N)cc2)n1
pIC50 [1]: < 5.00
pIC50 [2]: 7.70
pIC50 [3]: < 5.00
pIC50 [4]: < 5.00
pIC50 [5]: < 5.00

IC50 [2]: 0.251 µmol
SMILES: Cc1ccc(Oc2cn(C)c(=O)c(Nc3ccccc3)n2)c(C)c1

SMILES: Cc1ccc(Oc2cn(C)c(=O)c(Nc3ccc(Cl)cc3)n2)c(C)c1
pIC50 [1]: 5.30
pIC50 [2]: 7.60
pIC50 [3]: < 5.00
pIC50 [4]: 5.30
pIC50 [5]: 5.30

SMILES: Cc1ccccc1Sc1nc(Nc2ccc(C#N)cc2)c(O)nc1C
pIC50 [1]: 5.30
pIC50 [2]: 7.40
pIC50 [3]: 6.20
pIC50 [4]: 5.30
pIC50 [5]: 6.20

SMILES: Cc1cc(C)c(S(=O)(=O)c2cn(C)c(=O)c(Nc3ccc(C#N)cc3)n2)c(C)c1
pIC50 [1]: < 5.00
pIC50 [2]: 8.10
pIC50 [3]: < 5.00
pIC50 [4]: 6.40
pIC50 [5]: < 5.00

SMILES: Cc1ccccc1Oc1nc(Nc2ccc(Cl)cc2)c(=O)n(C)c1C
pIC50 [1]: 5.30
pIC50 [2]: 7.00
pIC50 [3]: < 5.00
pIC50 [4]: < 5.00
pIC50 [5]: < 5.00

SMILES: Cc1ccc(Oc2cn(Cc3ccccc3)c(=O)c(Nc3ccc(C#N)cc3)n2)c(C)c1
pIC50 [1]: 6.20
pIC50 [2]: 7.49
pIC50 [3]: < 5.00
pIC50 [4]: 5.80
pIC50 [5]: 6.20

SMILES: O=C1Nc2ccc(Cl)cc2[C@@](C#CC2CC2)(C(F)(F)F)O1 [EFAVIRENZ]
pIC50 [9]: < 5.00
pIC50 [1]: 7.40
pIC50 [10]: 7.40
pIC50 [4]: 8.70
pIC50 [5]: 7.40
